Results as given in US4652575A, “2-(ethylene-thio methyl furanyl)amino thiazole derivatives having acid secretion inhibiting activity” (Medosan Industrie Biochimiche Riunite S.p.A., priority 1984, dated 1987).
Read-outs that look alike come from different tables or passages of the source.

Legend:
histamine H2 receptors [1] = biological target: T1, histamine H2 receptors (Cavia porcellus, UniProt P47747); assay: Antagonistic activity to the histamine H2 receptors "in vitro" on insulated atrium auricolas of Guinea pig heart; details: guinea pig, 0.5 h; for inhibition at 10 µM: read-out: Antagonizing activity to histamine H2 receptors, compound 1·10^-5 M/L; for inhibition at 1 µM: read-out: Antagonizing activity to histamine H2 receptors, compound 1·10^-6 M/L; for inhibition at 0.1 µM: read-out: Antagonizing activity to histamine H2 receptors, compound 1·10^-7 M/L
T1 construct: tests on insulated atrium auricolas of Guinea pig heart; from tissue; host or cells: isolated guinea pig heart atrium
Method: (§1) The preparations were a solution of the substances in 2.5% citric acid for the "in vitro" test and 5% citric acid for the "in vivo" test respectively. Citric acid was diluted in normal physiologic saline at neutral pH.
This activity was evaluated "in vitro" by carrying out tests on insulated atrium auricolas of Guinea pig heart. […] Metering was carried out by placing the preparation into a vessel containing a Ringer-Locke solution wherein pure oxygen was bubbling, at a temperature of 37° C. A response of the organ "in vitro" was first established at cumulative histamine doses of 2.5.10^-7, 5.10^-7, 10^-6, 5.10^-6, 10^-5 M/L. After obtaining two constant lines with histamine at a time interval of one hour from one another, the substances under test were added to the bath and after a 30 minutes contact with the preparation, a new histamine response line in the presence of the substance under test was drawn. The activity was tested at various concentrations of the new compounds (10^-5, 10^-6, 10^-7 and in one case 10^-8 M/L).

gastric secretion = assay: Activity on gastric secretion "in vivo" (volume and total acidity of gastric juice after pylorus tieing, Shay); parameters: species or system male Wistar rats; details: for Total acidity gastric juice secretion / Volume gastric juice secretion / change in vivo at 20 mg/kg: 20 mg/kg oral
Method: as §1
The ability of the compounds according to the present invention to inhibit the gastric secretion was studied "in vivo" both by evaluating the volume reduction of gastric juice, and by measuring the total acidity of same after administration of the substances under test according to the Takeda method (see the aforementioned literature).
To this end, tests have been made on male Wistar rats of an average weight of 200 g. The animals, 10 for each substance, were placed into individual cages provided with ground grating in order to avoid coprophagy, without food but with free access to water for 24 hours before test. […] Four hours later the animals were sacrificed and the gastric juice was collected, of which the volume expressed in ml and the total acidity expressed in mEq was measured. The gastric juice ([…] ) was titrated with 0.1N NaOH to pH 7 to determine the acid concentration. The total acidity was then calculated as the product of the total volume of gastric juice by the acid concentration.

[2] = Acute toxicity (DL50) in rat; details: in vivo, po
From the text: The animals were kept under observation by checking mortality and possible pain signs for 15 days from start of test.

histamine H2 receptors [3] = biological target: T1, histamine H2 receptors; details: Daly M. J., Br. J. Pharmac., 72, 49, 1982; cited from earlier work
gastric acid secretion = details: experimental tests on animals and humans; prior art; cited from earlier work

T1 sequence (P47747 whole entry): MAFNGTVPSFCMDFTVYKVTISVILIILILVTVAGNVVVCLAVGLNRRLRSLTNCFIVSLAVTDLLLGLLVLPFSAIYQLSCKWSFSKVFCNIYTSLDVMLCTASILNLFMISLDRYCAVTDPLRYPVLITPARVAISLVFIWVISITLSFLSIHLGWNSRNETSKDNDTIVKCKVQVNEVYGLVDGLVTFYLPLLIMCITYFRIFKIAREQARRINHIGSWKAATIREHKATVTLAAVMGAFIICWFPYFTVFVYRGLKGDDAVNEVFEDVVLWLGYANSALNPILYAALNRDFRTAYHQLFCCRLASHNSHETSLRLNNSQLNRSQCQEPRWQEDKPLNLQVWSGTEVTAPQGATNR

CNC(=C[N+](=O)[O-])NCCSCc1ccc(CN(C)C)o1 [Ranitidine, reference compound]
inhibition at 10 µM (histamine H2 receptors [1]; histamine 1·10^-5 M/L): 90%
inhibition at 10 µM (histamine H2 receptors [1]; histamine 1·10^-6 M/L): 100%
inhibition at 10 µM (histamine H2 receptors [1]; histamine 2,5·10^-7 M/L): 100%
inhibition at 10 µM (histamine H2 receptors [1]; histamine 5·10^-6 M/L): 95%
inhibition at 10 µM (histamine H2 receptors [1]; histamine 5·10^-7 M/L): 100%
inhibition at 1 µM (histamine H2 receptors [1]; histamine 1·10^-5 M/L): 36%
inhibition at 1 µM (histamine H2 receptors [1]; histamine 1·10^-6 M/L): 97%
inhibition at 1 µM (histamine H2 receptors [1]; histamine 2,5·10^-7 M/L): 100%
inhibition at 1 µM (histamine H2 receptors [1]; histamine 5·10^-6 M/L): 67%
inhibition at 1 µM (histamine H2 receptors [1]; histamine 5·10^-7 M/L): 100%
inhibition at 0.1 µM (histamine H2 receptors [1]; histamine 1·10^-5 M/L): 2%
inhibition at 0.1 µM (histamine H2 receptors [1]; histamine 1·10^-6 M/L): 45%
inhibition at 0.1 µM (histamine H2 receptors [1]; histamine 2,5·10^-7 M/L): 85%
inhibition at 0.1 µM (histamine H2 receptors [1]; histamine 5·10^-6 M/L): 25%
inhibition at 0.1 µM (histamine H2 receptors [1]; histamine 5·10^-7 M/L): 70%
Total acidity gastric juice secretion (gastric secretion; 6 hours before pilorus tieing): 0,12 mEq/4 hours
Volume gastric juice secretion (gastric secretion; 6 hours before pilorus tieing): 4,8 ml/4 hours
Total acidity gastric juice secretion (gastric secretion; 12 hours before pilorus tieing): 0,16 mEq/4 hours
Volume gastric juice secretion (gastric secretion; 12 hours before pilorus tieing): 4,9 ml/4 hours
Total acidity gastric juice secretion (gastric secretion; 24 hours before pilorus tieing): 0,17 mEq/4 hours
Volume gastric juice secretion (gastric secretion; 24 hours before pilorus tieing): 5,3 ml/4 hours
Total acidity gastric juice secretion (gastric secretion; 36 hours before pilorus tieing): 0,16 mEq/4 hours
Volume gastric juice secretion (gastric secretion; 36 hours before pilorus tieing): 5,4 ml/4 hours
change in vivo at 20 mg/kg (gastric secretion; Rattus norvegicus, po, 6 hours before pilorus tieing, read-out: Total acidity gastric juice secretion, Variation %): -29%
change in vivo at 20 mg/kg (gastric secretion; Rattus norvegicus, po, 6 hours before pilorus tieing, read-out: Volume gastric juice secretion, Variation %): -9%
change in vivo at 20 mg/kg (gastric secretion; Rattus norvegicus, po, 12 hours before pilorus tieing, read-out: Total acidity gastric juice secretion, Variation %): 6%
change in vivo at 20 mg/kg (gastric secretion; Rattus norvegicus, po, 12 hours before pilorus tieing, read-out: Volume gastric juice secretion, Variation %): -4%
change in vivo at 20 mg/kg (gastric secretion; Rattus norvegicus, po, 24 hours before pilorus tieing, read-out: Total acidity gastric juice secretion, Variation %): 0%
change in vivo at 20 mg/kg (gastric secretion; Rattus norvegicus, po, 24 hours before pilorus tieing, read-out: Volume gastric juice secretion, Variation %): -5%
change in vivo at 20 mg/kg (gastric secretion; Rattus norvegicus, po, 36 hours before pilorus tieing, read-out: Total acidity gastric juice secretion, Variation %): 0%
change in vivo at 20 mg/kg (gastric secretion; Rattus norvegicus, po, 36 hours before pilorus tieing, read-out: Volume gastric juice secretion, Variation %): -3%
ED50 (gastric secretion; Rattus norvegicus, po, per os, 1 hour before pilorus tieing, read-out: DE50 in rat calculated on total acidity (mEq/4 hours)): 5.2 mg/kg
LD50 [2]: 2000 mg/kg
LD50 at 360 h [2]: 1600 mg/kg
antagonism of histamine induced increase of contraction frequency of the insulated atrium (in words) (histamine H2 receptors [3]): competitively antagonize
reduction of gastric acid secretion (in words) (gastric acid secretion): effective to reduce the gastric acid secretion
